Results as given in the NIST ThermoML archive (doi:10.1016/j.jct.2019.03.040).

Assays:
[1] = molar heat capacity at constant pressure; details: 101.33 kPa, Liquid, Small sample (50 mg) DSC
[2] = Liquid; for thermal diffusivity: 101.33 kPa, Laser flash apparatus

CCCOC(=O)CCC(C)=O [propyl levulinate]
Details	Critical pressure [kPa]	Critical temperature [K]	molar heat capacity at constant pressure [J/K/mol]	thermal diffusivity [m2/s]
[1], 303.04 K	–	–	319.87	–
[1], 303.54 K	–	–	320.34	–
[1], 304.04 K	–	–	320.5	–
[1], 304.54 K	–	–	320.03	–
[1], 305.04 K	–	–	320.5	–
[1], 305.54 K	–	–	320.34	–
[1], 306.04 K	–	–	320.5	–
[1], 306.54 K	–	–	320.19	–
[1], 307.04 K	–	–	320.19	–
[1], 307.54 K	–	–	320.82	–
[1], 308.04 K	–	–	320.82	–
[1], 308.54 K	–	–	321.45	–
[1], 309.04 K	–	–	320.82	–
[1], 309.54 K	–	–	321.14	–
[1], 310.04 K	–	–	321.61	–
[1], 310.54 K	–	–	321.14	–
[1], 311.04 K	–	–	321.29	–
[1], 311.54 K	–	–	321.29	–
[1], 312.04 K	–	–	322.08	–
[1], 312.54 K	–	–	321.45	–
[1], 313.04 K	–	–	322.24	–
[1], 313.54 K	–	–	322.08	–
[1], 314.04 K	–	–	322.24	–
[1], 314.54 K	–	–	322.24	–
[1], 315.04 K	–	–	322.56	–
[1], 315.54 K	–	–	322.88	–
[1], 316.04 K	–	–	322.72	–
[1], 316.54 K	–	–	322.24	–
[1], 317.04 K	–	–	322.56	–
[1], 317.54 K	–	–	323.03	–
[1], 318.04 K	–	–	323.98	–
[1], 318.54 K	–	–	323.19	–
[1], 319.04 K	–	–	323.67	–
[1], 319.54 K	–	–	324.14	–
[1], 320.04 K	–	–	323.35	–
[1], 320.54 K	–	–	323.83	–
[1], 321.04 K	–	–	323.67	–
[1], 321.54 K	–	–	323.83	–
[1], 322.04 K	–	–	323.83	–
[1], 322.54 K	–	–	324.62	–
[1], 323.04 K	–	–	324.46	–
[1], 323.54 K	–	–	324.46	–
[1], 324.04 K	–	–	324.3	–
[1], 324.54 K	–	–	324.93	–
[1], 325.04 K	–	–	324.93	–
[1], 325.54 K	–	–	325.25	–
[1], 326.04 K	–	–	325.57	–
[1], 326.54 K	–	–	325.72	–
[1], 327.04 K	–	–	325.88	–
[1], 327.54 K	–	–	325.72	–
[1], 328.04 K	–	–	326.04	–
[1], 328.54 K	–	–	326.67	–
[1], 329.04 K	–	–	325.72	–
[1], 329.54 K	–	–	326.51	–
[1], 330.04 K	–	–	326.2	–
[1], 330.54 K	–	–	326.83	–
[1], 331.04 K	–	–	326.83	–
[1], 331.54 K	–	–	327.15	–
[1], 332.04 K	–	–	326.83	–
[1], 332.54 K	–	–	327.15	–
[1], 333.04 K	–	–	326.83	–
[1], 333.54 K	–	–	327.31	–
[1], 334.04 K	–	–	327.62	–
[1], 334.54 K	–	–	328.1	–
[1], 335.04 K	–	–	328.41	–
[1], 335.54 K	–	–	328.73	–
[1], 336.04 K	–	–	328.41	–
[1], 336.54 K	–	–	328.25	–
[1], 337.04 K	–	–	328.57	–
[1], 337.54 K	–	–	328.57	–
[1], 338.04 K	–	–	329.2	–
[1], 338.54 K	–	–	328.89	–
[1], 339.04 K	–	–	329.05	–
[1], 339.54 K	–	–	329.2	–
[1], 340.04 K	–	–	328.89	–
[1], 340.54 K	–	–	329.36	–
[1], 341.04 K	–	–	329.84	–
[1], 341.54 K	–	–	329.99	–
[1], 342.04 K	–	–	329.68	–
[1], 342.54 K	–	–	329.36	–
[1], 343.04 K	–	–	330.31	–
[1], 343.54 K	–	–	330.31	–
[1], 344.04 K	–	–	330.15	–
[1], 344.54 K	–	–	330.15	–
[1], 345.04 K	–	–	330.63	–
[1], 345.54 K	–	–	331.1	–
[1], 346.04 K	–	–	331.1	–
[1], 346.54 K	–	–	330.94	–
[1], 347.04 K	–	–	331.58	–
[1], 347.54 K	–	–	331.58	–
[1], 348.04 K	–	–	331.73	–
[1], 348.54 K	–	–	332.05	–
[1], 349.04 K	–	–	331.89	–
[1], 349.54 K	–	–	332.05	–
[1], 350.04 K	–	–	332.37	–
[1], 350.54 K	–	–	332.68	–
[1], 351.04 K	–	–	333.16	–
[1], 351.54 K	–	–	333	–
[1], 352.04 K	–	–	333	–
[1], 352.54 K	–	–	333.16	–
[1], 353.04 K	–	–	333.95	–
[1], 353.54 K	–	–	333.47	–
[1], 354.04 K	–	–	334.27	–
[1], 354.54 K	–	–	334.27	–
[1], 355.04 K	–	–	334.42	–
[1], 355.54 K	–	–	334.74	–
[1], 356.04 K	–	–	334.27	–
[1], 356.54 K	–	–	334.42	–
[1], 357.04 K	–	–	334.58	–
[1], 357.54 K	–	–	334.58	–
[1], 358.04 K	–	–	335.22	–
[1], 358.54 K	–	–	335.37	–
[1], 359.04 K	–	–	335.85	–
[1], 359.54 K	–	–	335.85	–
[1], 360.04 K	–	–	335.53	–
[1], 360.54 K	–	–	336.01	–
[1], 361.04 K	–	–	336.32	–
[1], 361.54 K	–	–	336.64	–
[1], 362.04 K	–	–	336.16	–
[1], 362.54 K	–	–	336.01	–
[1], 363.04 K	–	–	336.16	–
[1], 363.54 K	–	–	336.64	–
[1], 364.04 K	–	–	337.11	–
[1], 364.54 K	–	–	337.11	–
[1], 365.04 K	–	–	337.11	–
[1], 365.54 K	–	–	337.11	–
[1], 366.04 K	–	–	337.9	–
[1], 366.54 K	–	–	337.9	–
[1], 367.04 K	–	–	337.59	–
[1], 367.54 K	–	–	337.59	–
[1], 368.04 K	–	–	338.06	–
[1], 368.54 K	–	–	338.06	–
[1], 369.04 K	–	–	337.75	–
[1], 369.54 K	–	–	337.9	–
[1], 370.04 K	–	–	338.22	–
[1], 370.54 K	–	–	338.06	–
[1], 371.04 K	–	–	338.54	–
[1], 371.54 K	–	–	338.54	–
[1], 372.04 K	–	–	338.7	–
[1], 372.54 K	–	–	339.49	–
[1], 373.04 K	–	–	339.33	–
[1], 373.54 K	–	–	339.49	–
[1], 374.04 K	–	–	340.12	–
[1], 374.54 K	–	–	340.75	–
[2], 303.15 K	–	–	–	7.82e-08
[2], 313.15 K	–	–	–	7.73e-08
[2], 323.15 K	–	–	–	7.62e-08
[2], 333.15 K	–	–	–	7.53e-08
[2], 343.15 K	–	–	–	7.37e-08
[2], 353.15 K	–	–	–	7.26e-08
[2], 363.15 K	–	–	–	7.22e-08
[2], Resistive pulse heating	2670	674	–	–
